Measurements published in US11452731B2, “Method of treating and preventing loss of cognition” (ENDORECHERCHE, INC., priority 2009, dated 2022).
Marks after values point to notes of the source that are not given here. Each block holds one molecule with its values, some of them ahead of it.

Tests used:
[1] = 5-week treatment of ovariectomized rats with SERMs alone or with DHEA: BMD of lumbar spine, femur, tibia (Example 5); assay type: in vivo, rat; conditions: OVX rats, 5 weeks
Procedure: Ten to twelve week-old female Sprague-Dawley rats (Crl:CD(SD)Br) (Charles River Laboratory, St-Constant, Canada) weighing approximately 220-270 g at start of treatment were used. The animals were acclimatized to the environmental conditions (temperature: 22±3° C.; humidity: 50±20%; 12-h light-12-h dark cycles, lights on at 07:15 h) for at least 1 week before starting the experiments. The animals were housed individually and were allowed free access to tap water and a pelleted certified rodent feed (Lab Diet 5002, Ralston Purina, St-Louis, Mo.). Experiments were conducted in an animal facility approved by the Canadian Council on Animal Care (CCAC) and the Association for Assessment and Accreditation of Laboratory Animal Care (AAALAC) in accordance with the CCAC Guide for Care and Use of Experimental Animals.
On day 1 of the study, the animals of the appropriate groups were bilaterally ovariectomized (Ovx) under isoflurane anesthesia. The DHEA was applied topically on the dorsal skin as a solution in 50% ethanol-50% propylene glycol while the tested SERMs were administered as suspension in 0.4% methylcellulose by oral gavage. Treatments were initiated on day 2 of the study and were performed once daily during 5 weeks.
After 5 weeks of treatment, individual rats under Isoflurane anesthesia had their lumbar spine, femur and tibia scanned using dual energy x-ray absorptiometry (DEXA; QDR 4500A, Hologic, Waltham, Mass.) and a Regional High Resolution Scan software. The bone mineral density (BMD) of the lumbar spine (vertebrae L2 to L4), distal femoral metaphysis (DFM) and proximal tibial metaphysis (PTM) were determined.

[2] = tested on: human Ishikawa cells; experiment: Alkaline phosphatase activity in human endometrial adenocarcinoma Ishikawa cells (Example 6); conditions: for IC50 / Emax: Homo sapiens, Ishikawa, 120 h; for IC50: read-out: Inhibition of 1 nM E2-induced stimulation of alkaline phosphatase IC50; for Emax: read-out: Maximal stimulation of alkaline phosphatase % of 1 nM E2 stimulation; for Maximal inhibition of 1 nM E2-induced stimulation of alkaline phosphatase: Ishikawa cells, 5-day incubation
[3] = Uterine and vaginal weight in ovariectomized BALB/c mice treated orally for 9 days with or without estrone (Example 3); assay type: in vivo
Procedure: Female BALB/c mice (BALB/cAnNCrlBR) weighing 18-20 g were obtained from Charles-River, Inc. (St-Constant, Quebec, Canada) and housed 5 per cage in a temperature (23±1° C.)- and light (12 h light/day, lights on at 7:15)-controlled environment. The mice were fed rodent chow and tap water ad libitum. The animals were ovariectomized (OVX) under Isoflurane anesthesia via bilateral flank incisions and randomly assigned to groups of 10 animals. Ten mice were kept intact as controls.
In the second experiment (Table 6), TSE 424 was administered orally by gavage once daily at doses of 1, 3, 10 or 30 μg/animal for 9 days, starting 2 days after ovariectomy. In both experiments, to evaluate the antiestrogenic activity, treatment with estrone (E1, […], s.c. injection, twice daily) was started 5 days post-ovariectomy and was administered for a 6 day-period. Compounds were dissolved in ethanol (4% final concentration) and administered in 0.4% methylcellulose. Mice in the intact and OVX control groups received the vehicle alone (4% ETOH-0.4% methylcellulose) during the 9-day period. The animals were killed by exsanguination at the abdominal aorta on the 11th morning following ovariectomy. The uteri and vagina were rapidly dissected, weighed, and kept in 10% buffered formalin for further histologic examination.

[4] = tested on: ZR-75-1 human breast cancer xenografts; experiment: Growth and response of human ZR-75-1 breast tumors in OVX nude mice, 7 antiestrogens for 161 days with or without estrone (Example 8); assay type: in vivo
Procedure: ZR-75-1 human breast cancer cells were obtained from the American Type Culture Collection (Rockville, Md.) and cultured in phenol red-free RPMI-1640 medium. […] (Saint-Constant, Québec, Canada). The mice (5 per cage) were housed in vinyl cages equipped with air filter lids, which were kept in laminar airflow hoods and maintained under pathogen-limiting conditions. The photoperiod was 12 hours of light and 12 hours of darkness (lights on at 07:15). Cages, bedding and food (Agway Pro-Lab R-M-H Diet #4018) were autoclaved before use. Water was autoclaved and provided ad libitum. Bilateral ovariectomy was performed under isoflurane-induced anesthesia. […] Randomization and treatments were started one week later. […] The estrone implants were then removed from the animals in the ovariectomized control group (OVX) and in groups that were to receive the antiestrogen alone. […] Tamoxifen was purchased from […]) while toremifene citrate was purchased from Orion (Espoo, Finland). […] The antiestrogen suspensions at the appropriate concentration were prepared each month, stored at 4° C. and used under constant agitation. Powder stock were hermetically stored at 4° C. […] Two perpendicular diameters were recorded and tumor area (mm2) was calculated using the formula: […] Tumor response was assessed at the end of the study or at death of each animal, if it occurred during the course of the experiment. In this case, only data of mice that survived for at least half of the study ([…]) were used in the tumor response analysis.

[5] = Endometrial epithelium thickness in OVX nude mice after 161 days of antiestrogen (Example 8); assay type: in vivo
Excerpt: The 17 groups included two control groups (OVX and OVX+Estrone), seven groups supplemented with an estrone implant and treated with an antiestrogen and eight other groups that received an antiestrogen alone. The estrone implants were then removed from the animals in the ovariectomized control group (OVX) and in groups that were to receive the antiestrogen alone. […] Tamoxifen was purchased from […]) while toremifene citrate was purchased from Orion (Espoo, Finland). […] The antiestrogen suspensions at the appropriate concentration were prepared each month, stored at 4° C. and used under constant agitation. Powder stock were hermetically stored at 4° C. […] After 161 days of treatment, the remaining animals were anesthetized with isoflurane and killed by exsanguination. […] The uteri were prepared to evaluate endometrial thickness by image analysis performed with Image Pro-Plus (Media Cybernetics, Maryland, USA). […] Hematoxylin- and eosin-stained sections of mice uteri were analyzed. […] Mean epithelial cell height was measured in all animals of each group.

[6] = OVX mice + estrone, oral 9 days, 10 μg daily
[7] = OVX mice, absence of estrone, 10 μg daily (no-effect statements: 1 μg and 10 μg)
[8] = estrone-supplemented, 50 μg daily, 161 days

IC50 [2]: 5.84 nM
Compound: Cc1c(-c2ccc(O)cc2)n(Cc2ccc(OCCN3CCCCC3)cc2)c2ccc(O)cc12 [ERA-923, 2-(4-hydroxyphenyl)-3-methyl-1-[[4-[2-(1-piperidinyl)ethoxy]phenyl]methyl]-1H-indol-5-ol]
DISTAL FEMORAL METAPHYSIS (DFM) BMD [1]: 0.2969 ± 0.0029 g/cm^2
DISTAL FEMORAL METAPHYSIS (DFM) Prevention of Bone Loss [1]: 83%
PROXIMAL TIBIAL METAPHYSIS (PFM) BMD [1]: 0.2805 ± 0.0034 g/cm^2
PROXIMAL TIBIAL METAPHYSIS (PFM) Prevention of Bone Loss [1]: 91%
LUMBAR SPINE (L2-L4) BMD ([1]; SERMs 2.5 mg/kg, DHEA 80 mg/kg): 0.2214 ± 0.0029 g/cm^2
LUMBAR SPINE (L2-L4) Prevention of Bone Loss ([1]; SERMs 2.5 mg/kg, DHEA 80 mg/kg): 78%
Emax [2]: 0.6%
Maximal inhibition of 1 nM E2-induced stimulation of alkaline phosphatase [2]: 100.16 (1)

IC50 [2]: 3.39 ± 0.9 nM
Compound: Cl.O=C(c1ccc(OCCN2CCCCC2)cc1)c1c(-c2ccc(O)cc2)sc2cc(O)ccc12 [Raloxifene, [2-(4-hydroxyphenyl)-6-hydroxybenzo[b]thien-3-yl] [4-[2-(1-piperidinyl)ethoxy]phenyl]-methanone hydrochloride]
inhibition of estrone-stimulated uterine weight ([3]; OVX mice + estrone, oral 9 days, 1 μg daily): 6%
inhibition of estrone-stimulated uterine weight ([3]; OVX mice + estrone, oral 9 days, 3 μg daily): 14%
inhibition of estrone-stimulated uterine weight [3, 6]: 43%
inhibition of vaginal weight (estrone-stimulated) [3, 6]: 24%
stimulation of uterine weight (estrogenic effect) [3, 7]: 85%
stimulation of vaginal weight (estrogenic effect) [3, 7]: 56%
increase of average tumor size over baseline (agonistic effect) ([4]; absence of estrone, 200 μg daily, 161 days): did not significantly change
average tumor size above pretreatment values ([4]; estrone-stimulated, 50 μg oral daily, 23 weeks): 191%
progressing tumors, % of tumors [4, 8]: 81%
progressing tumors, number of total [4, 8]: 21 of 26
inhibition of the stimulatory effect of estrone on epithelial height ([5]; 50 μg daily oral, estrone stimulation): 26%
height of uterine epithelial cells, % of the OVX control group value ([5]; 200 μg daily, absence of estrone): 122%
ENDOMETRIAL EPITHELIUM THICKNESS (μm) ± SEM ([5]; OVX + E1, antiestrogen 50 μg daily): 34.72^b,d ± 0.06 μm
ENDOMETRIAL EPITHELIUM THICKNESS (μm) ± SEM ([5]; OVX without E1, antiestrogen 200 μg daily): 22.33^a ± 0.05 μm
Emax [2]: 12.8 ± 1.7%
Maximal inhibition of 1 nM E2-induced stimulation of alkaline phosphatase [2]: 94.31 ± 1.74 (5)

IC50 [2]: 72.1 ± 7.6 nM
Compound: CN(C)CCOc1ccc(/C(=C(/CCCl)c2ccccc2)c2ccc(O)cc2)cc1 [OH-Toremifene, (Z)-(2)-2-[4-(4-chloro-1-(4-hydroxyphenyl)-2-phenyl-1-butenyl)phenoxy]-N,N-dimethylethanamine]
Emax [2]: 29.6 ± 2.1%
Maximal inhibition of 1 nM E2-induced stimulation of alkaline phosphatase [2]: 75.73 ± 3.52 (3)

IC50 [2]: 1.87 ± 0.07 nM
Compound: COc1ccc(-c2sc3cc(O)ccc3c2Oc2ccc(OCCN3CCCCC3)cc2)cc1.Cl [LY 353381, 6-hydroxy-3-[4-[2-(1-piperidinyl)ethoxy]phenoxyl]-2-(4-methoxyphenyl) benzo [b] thiophene hydrochloride]
Emax [2]: 15.5 ± 0.25%
Maximal inhibition of 1 nM E2-induced stimulation of alkaline phosphatase [2]: 90.25 ± 0.127 (2)
